The results in this text go back to US4946860A, “Benzothiopyranyl derivatives as HMG-CoA reductase inhibitors” (Rorer Pharmaceutical Corporation, priority 1989, dated 1990).

One assay concerns cholesterol synthesis. Description: Ex-Vivo Non-Fasted (cholesterol synthesis from [14C] sodium acetate in liver slices of orally dosed fed rats). Set-up: species or system rat. As to conditions: oral in 0.5% methocel, livers removed two hours after dosing, dose not given. On the procedure: (§1) The utility of the claimed compounds is measured by the test methods described hereunder. […] 1976, Biochemistry.
The second method used (designated Ex-Vivo Non-Fasted and Ex-Vivo Fasted) used was as follows: Rats of 170-210g were maintained on a low cholesterol diet for one week prior to use. Drugs were given orally in 0.5% methocel to both fed and fasted (fasted for 16 hours) rats. After one hour (fasted rats) and two hours (fed rats) the rats were decapitated and their livers removed and transferred to chilled oxygenated Kreb's-Ringer-bicarbonate buffer (pH 7.4). The livers were then chopped into 0.5 mm slices using a McIlwain tissue chopper, and were suspended in the same buffer. Aliquots of the suspension containing 100 mg tissue were pipetted to culture tubes which contained [^14 C] sodium acetate (2 μCi, 1 mM). The tubes were gassed with 95% O2 /5%CO2, capped and incubated at 37° C. in a shaking water bath at 150 oscillation/minute for two hours. The final assay volume was 1.0 ml. After incubation the reaction was stopped by the addition of 1.0 ml of 15% KOH in ethanol, and the internal standard ^3 H-cholesterol was added. The tubes were recapped and the samples were saponified at 75° C. for two hours with periodic mixing. […] After visualization with iodine the cholesterol spots were cut and counted with liquid scintillation fluid. […]

The target in another assay is HMGR enzyme. Description: HMGR Screen (solubilized rat liver microsomal HMG-CoA reductase, [14C] HMG-CoA). The following applies: 20 μM HMG-CoA, pH 7.0, 37° C. The format is biochemical. On the procedure: as §1
The first method used (designated HMGR Screen) was as follows: Male rats were acclimated to an alternate 12 hour light-dark cycle for a period of 2-3 weeks. The animals, weighing 180-230g, were fed ad libitum a rat chow containing 2% cholestyramine for 5 days prior to sacrifice at the mid-dark period. Liver microsomes were prepared and HMGR enzyme was solubilized from the microsomes by freeze-thaw manipulation in high ionic strength buffer. The enzyme preparation was stored at -80° C. in 300 μl portion samples. Prior to use, the enzyme was activated at 37° C. for 30 minutes in a reaction mixture. The reaction mixture was contained in a volume of 240 μl1:0.14M potassium phosphate buffer (pH 7.0); 0.18M KCl; 3.5 mM EDTA; 10 mM dithiothreitol; 0.1 mg/ml BSA; 30,000 cpm of [^14 C] HMG-CoA; 20 μM HMG-CoA; and 200 μg of solubilized enzyme with and without inhibitors (in 10 μl DMSO). After 5 minutes incubation at 37° C. the reaction was initiated with 0.2 mM NADPH. The final assay volume was 300 μl. After 10 minutes the reaction mixture was terminated with 100 μl of 1N HCl. […] After the addition of 10 ml of Aquasol , radioactivities of the samples were measured in a scintillation counter.
For orientation: Microsomes from liver hold many membrane-bound enzymes, among them those of drug oxidation.

The term IC50 denotes the concentration that inhibits the measured activity by half. `CC1(C)Sc2ccccc2C(c2ccc(F)cc2)=C1/C=C/[C@@H]1C[C@@H](O)CC(=O)O1` (relative stereo) [Example 1G] yielded an inhibited cholesterol synthesis in the assay on cholesterol synthesis of 43%. This compound returned an IC50 on HMGR enzyme of 9.8 nM.
